Test results from the NIST ThermoML archive (doi:10.1021/acs.jced.5b00778).

Assay: mn = molality of the nth substance listed, in mol/kg
Conditions: 298.15 K; for surface tension liquid-gas: Ring tensiometer; for electrical conductivity: 100 kPa, Liquid, Alternating current cell with electrodes

CCCCCCCCCCCCCCCCOCC(O)C[N+](C)(C)CCCCCCCC.[Br-] (stereo not given) + O
Conditions	electrical conductivity [S/m]	surface tension liquid-gas [mN/m]
m1 = 2.04e-06	–	69.09
m1 = 2.63e-06	–	68.55
m1 = 3.55e-06	–	61.94
m1 = 3.8e-06	–	60.95
m1 = 4.07e-06	–	55.95
m1 = 4.37e-06	–	48.71
m1 = 5.89e-06	–	44.65
m1 = 7.94e-06	–	41.6
m1 = 1.023e-05	–	37.64
m1 = 0.0067	5.6e-05	–
m1 = 0.0076	5.8e-05	–
m1 = 0.0086	6.4e-05	–
m1 = 0.0095	7.4e-05	–
m1 = 0.0105	7.7e-05	–
m1 = 0.0114	7.8e-05	–
m1 = 0.0124	9.3e-05	–
m1 = 0.0133	9.6e-05	–
m1 = 0.0143	0.000114	–
m1 = 0.0152	0.000111	–
m1 = 0.0162	0.000121	–
m1 = 0.0171	0.000132	–
m1 = 0.0181	0.000144	–
m1 = 0.019	0.000147	–
m1 = 0.0209	0.000168	–
m1 = 0.0219	0.000176	–
m1 = 0.0229	0.00019	–
m1 = 0.0238	0.000201	–
m1 = 0.0248	0.000212	–

CCCCCCCCCCCCCCOCC(O)C[N+](C)(C)CCCCCCCC.[Br-] (stereo not given) + O
Conditions	electrical conductivity [S/m]	surface tension liquid-gas [mN/m]
m1 = 3.388e-06	–	60.85
m1 = 4.169e-06	–	59.07
m1 = 5.012e-06	–	58.67
m1 = 6.761e-06	–	54.53
m1 = 8.511e-06	–	51.91
m1 = 1.175e-05	–	47.9
m1 = 1.514e-05	–	44.86
m1 = 1.995e-05	–	41.5
m1 = 2.512e-05	–	39.09
m1 = 3.388e-05	–	36.16
m1 = 4.571e-05	–	33.74
m1 = 0.009	0.000161	–
m1 = 0.0144	0.000255	–
m1 = 0.0198	0.000343	–
m1 = 0.0252	0.000427	–
m1 = 0.0306	0.000521	–
m1 = 0.036	0.000636	–
m1 = 0.0414	0.000683	–

CCCCCCCCCCCCCC[N+](C)(C)CC(O)COCCCCCCCCCC.[Br-] (stereo not given) + O
Conditions	electrical conductivity [S/m]	surface tension liquid-gas [mN/m]
m1 = 2.4e-07	–	70.44
m1 = 2.82e-07	–	69.87
m1 = 4.17e-07	–	69.41
m1 = 5.62e-07	–	65.68
m1 = 7.24e-07	–	57.18
m1 = 8.51e-07	–	53.77
m1 = 1.148e-06	–	48.14
m1 = 1.413e-06	–	44.06
m1 = 1.698e-06	–	40.95
m1 = 2.291e-06	–	35.65
m1 = 2.818e-06	–	33.63
m1 = 0.0013	2.8e-05	–
m1 = 0.0027	4.9e-05	–
m1 = 0.004	4.9e-05	–
m1 = 0.0053	5.8e-05	–
m1 = 0.0067	8e-05	–
m1 = 0.008	0.000102	–
m1 = 0.0093	0.000111	–
m1 = 0.0107	0.000117	–
m1 = 0.012	0.000157	–
m1 = 0.0133	0.00017	–
m1 = 0.0147	0.000166	–
m1 = 0.016	0.000201	–
m1 = 0.0174	0.000211	–
m1 = 0.0187	0.000243	–
m1 = 0.02	0.000261	–
m1 = 0.0214	0.000284	–
m1 = 0.0227	0.000297	–
m1 = 0.024	0.000319	–
m1 = 0.0254	0.00033	–
m1 = 0.0267	0.000361	–
m1 = 0.028	0.000376	–

CCCCCCCCCCCCOCC(O)C[N+](C)(C)CCCCCCCC.[Br-] (stereo not given) + O
Conditions	electrical conductivity [S/m]	surface tension liquid-gas [mN/m]
m1 = 1.047e-05	–	64.92
m1 = 1.738e-05	–	60.07
m1 = 2.089e-05	–	57.65
m1 = 2.818e-05	–	53.97
m1 = 3.548e-05	–	52.04
m1 = 4.898e-05	–	48.46
m1 = 6.31e-05	–	46.1
m1 = 8.511e-05	–	42.5
m1 = 0.0001047	–	39.79
m1 = 0.0001479	–	36.43
m1 = 0.0001905	–	33.42
m1 = 0.014	0.00023	–
m1 = 0.028	0.00034	–
m1 = 0.0561	0.00065	–
m1 = 0.0841	0.00105	–
m1 = 0.1121	0.00117	–
m1 = 0.1402	0.00141	–
m1 = 0.1682	0.00173	–
m1 = 0.1962	0.00195	–
m1 = 0.2243	0.00226	–

CCCCCCCCCCOCC(O)C[N+](C)(C)CCCCCCCC.[Br-] (stereo not given) + O
Conditions	electrical conductivity [S/m]	surface tension liquid-gas [mN/m]
m1 = 2.399e-05	–	63.84
m1 = 3.388e-05	–	60.78
m1 = 3.715e-05	–	59.62
m1 = 7.413e-05	–	53.71
m1 = 7.59e-05	0.00088	–
m1 = 0.0001122	–	49.75
m1 = 0.0001514	–	47
m1 = 0.0001518	0.00161	–
m1 = 0.0001905	–	45.13
m1 = 0.000235	0.0023	–
m1 = 0.000263	–	41.95
m1 = 0.0003035	0.00316	–
m1 = 0.0003715	–	39.03
m1 = 0.0004553	0.00439	–
m1 = 0.0005248	–	35.86
m1 = 0.000535	0.00496	–
m1 = 0.000607	0.00573	–
m1 = 0.0007413	–	33.29
m1 = 0.0007588	0.00697	–
m1 = 0.000835	0.00758	–
m1 = 0.0009105	0.00827	–
m1 = 0.001062	0.00937	–
